Assay results reported in PMC5478869, “New Hydroxycinnamic Acid Esters as Novel 5-Lipoxygenase Inhibitors That Affect Leukotriene Biosynthesis” (Mediators of Inflammation, 2017).
“Also recorded” adds a separate entry of the source.

Assays:
arachidonic acid release = details: cited from earlier work
5-LO = biological target: T1, 5-LO (Homo sapiens, UniProt P09917); assay: Biosynthesis of 5-LO products in HEK293 cells expressing 5-LO and FLAP (A23187 + arachidonic acid); type: cell-based; set-up: expressed in transfected cells; host or cells: HEK293; details: 1 μM compound, 10 μM A23187 + 10 μM arachidonic acid, 15 min
T1 sequence (P09917 1-674): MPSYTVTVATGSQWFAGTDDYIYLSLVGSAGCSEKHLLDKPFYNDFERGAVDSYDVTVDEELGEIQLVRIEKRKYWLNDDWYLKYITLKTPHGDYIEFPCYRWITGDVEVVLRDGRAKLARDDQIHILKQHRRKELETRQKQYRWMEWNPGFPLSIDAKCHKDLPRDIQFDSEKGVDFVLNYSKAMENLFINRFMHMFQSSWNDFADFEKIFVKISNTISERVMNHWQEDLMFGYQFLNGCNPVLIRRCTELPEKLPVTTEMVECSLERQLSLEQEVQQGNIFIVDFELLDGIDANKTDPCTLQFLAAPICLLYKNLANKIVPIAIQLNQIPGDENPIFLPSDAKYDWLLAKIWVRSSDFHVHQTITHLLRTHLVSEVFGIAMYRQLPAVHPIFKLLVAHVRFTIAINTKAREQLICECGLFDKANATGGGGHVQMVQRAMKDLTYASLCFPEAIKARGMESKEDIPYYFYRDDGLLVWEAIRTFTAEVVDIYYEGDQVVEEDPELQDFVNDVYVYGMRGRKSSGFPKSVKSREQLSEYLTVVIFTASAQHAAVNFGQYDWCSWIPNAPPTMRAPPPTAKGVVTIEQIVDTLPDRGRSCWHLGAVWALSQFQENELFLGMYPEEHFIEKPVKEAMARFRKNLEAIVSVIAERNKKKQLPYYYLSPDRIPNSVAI
Method: HEK293 cells expressing both 5-LO and the 5-lipoxygenase activating protein (FLAP) were generated as previously reported. For cell stimulation of 5-LO products, transfected HEK293 cells were collected following trypsinization and washed and the cell pellet was resuspended in Hank's balanced salt solution (HBSS, Lonza) containing 1.6 mM CaCl2 at a concentration of 5 × 10^5 cells/ml. Cells were preincubated with each compound at the indicated concentration for 5 min at 37°C. Cells were then stimulated for 15 minutes at 37°C with the addition of 10 μM calcium ionophore A23187 (Sigma-Aldrich) and 10 μM arachidonic acid (Cayman Chemical). Stimulations were stopped by adding 0.5 volume of cold MeOH:MeCN (1 : 1) containing 100 ng/ml of 19-OH prostaglandin B2 (PGB2) as internal standard. Samples were then processed and 5-LO products were analyzed by reversed-phase high-performance liquid chromatography (RP-HPLC) as described previously.
To evaluate CAPE analogues as potential inhibitors of the biosynthesis of 5-LO products, a first series of experiments was performed in HEK293 cells expressing both 5-LO and FLAP as previously described. HEK293 cells were first preincubated with the test compounds (1 μM), then stimulated in the presence of arachidonic acid and calcium ionophore A23187 to induce the biosynthesis of 5-LO products (Figure 2(a)). […] Based on these criteria, compounds 9, 13, 14, 15, 16, and 19 were selected for subsequent analyses.
Figure 2 Effect of the test compounds on the biosynthesis of 5-LO products in transfected HEK293 cells (a) and thapsigargin-stimulated PMNL (b). (a) HEK293 cells expressing both 5-LO and FLAP were incubated in presence of the indicated compounds (1 μM) or their diluent (control, 0.5% DMSO) for 5 min, then biosynthesis of 5-LO products was initiated with the addition of 10 μM calcium ionophore A23187 and 10 μM arachidonic acid for 15 min. After stimulation, reactions were stopped and samples were processed for analysis of 5-LO products by RP-HPLC. Total 5-LO products measured represent the sum of LTB4, its trans isomers, and 5-hydroxyeicosatetraenoic acid. (b) Freshly isolated human PMNL were incubated in presence of test compounds (or their diluent control, DMSO 0.5%) at the indicated concentrations for 5 min. Biosynthesis of the 5-LO products was initiated with the addition of 1 μM of thapsigargin, followed by a 15 min incubation period at 37°C. The stimulation was then stopped and samples were processed for RP-HPLC analysis and total 5-LO products quantification. Total 5-LO products measured represent the sum of LTB4, its trans isomers, 20-COOH- and 20-OH-LTB4 and 5-hydroxyeicosatetraenoic acid. Data are expressed as means ± SEM of at least 3 independent experiments. ^∗Different from control, as determined by one-way ANOVA with Dunnett's multiple comparison test (p < 0.05).

PMNL = assay: Annexin V labelling of PMNL (early apoptosis); type: cell-based, human; details: 20 min incubation at 37°C
From the text: A positive control with 10% EtOH is shown to validate the assay.

Row | Structure (SMILES) | Inhibition of liberation of cellular arachidonic acid (previously shown) (arachidonic acid release) | Inhibition of biosynthesis of 5-LO products in transfected HEK293 cells (5-LO) | Induction of early apoptosis of PMNL (annexin V labelling) (PMNL)
1 | O=C(/C=C/c1ccc(O)c(O)c1)OCCc1ccccc1 [CAPE (2), Caffeic acid phenethyl ester, reference compound] | previously shown to inhibit the liberation of cellular arachidonic acid | significantly inhibited the biosynthesis of 5-LO products | 
2 | C=C(C)CCOC(=O)/C=C/c1ccc(O)c(O)c1 [Compound 9] |  | showed similar or better inhibitory activity than the reference compound CAPE (2), or decreased the biosynthesis of 5-LO products by more than 50%; also recorded: best inhibitory activity amongst the compounds from the aliphatic series | 
3 | O=C(/C=C/c1ccc(O)c(O)c1)OCCCc1ccccc1 [Compound 13] |  | showed similar or better inhibitory activity than the reference compound CAPE (2), or decreased the biosynthesis of 5-LO products by more than 50% | did not induce early apoptosis of PMNL
4 | O=C(/C=C/c1ccc(O)c(O)c1)OCCc1ccc(F)cc1 [Compound 14] |  | showed similar or better inhibitory activity than the reference compound CAPE (2), or decreased the biosynthesis of 5-LO products by more than 50% | 
5 | Cc1ccc(CCOC(=O)/C=C/c2ccc(O)c(O)c2)cc1 [Compound 15] |  | showed similar or better inhibitory activity than the reference compound CAPE (2), or decreased the biosynthesis of 5-LO products by more than 50% | 
6 | COc1ccc(CCOC(=O)/C=C/c2ccc(O)c(O)c2)cc1 [Compound 16] |  | showed similar or better inhibitory activity than the reference compound CAPE (2), or decreased the biosynthesis of 5-LO products by more than 50% | 
7 | O=C(/C=C/c1ccc(O)c(O)c1)OCC(c1ccccc1)c1ccccc1 [Compound 19] |  | showed similar or better inhibitory activity than the reference compound CAPE (2), or decreased the biosynthesis of 5-LO products by more than 50% | 
